The target of one assay is T1, WT-IDH1 (C269) (Homo sapiens, UniProt O75874).
T1 construct: Full length cDNAs encoding for IDH1 (Open Biosystems, Clone ID: 3880331) and IMPDH2; His6 (C); made in house; host or cells: E. coli BL21(DE3)
Kind of assay: Blockade of IA-rhodamine labeling of WT-IDH1. The following applies: 2 μM protein in MDA-MB-231 lysate. The class given is binding.

The target of a further assay is MKI67 C903 (P46013) (Homo sapiens, UniProt P46013). Kind of assay: Competitive isoTOP-ABPP in situ. The class given is cell-based. Particulars: fragment 2 at 200 μM, MDA-MB-231 cells.
In the next assay the target is USP16 C205 (Q9Y5T5) (Homo sapiens, UniProt Q9Y5T5). Kind of assay: Competitive isoTOP-ABPP in situ. The following applies: MDA-MB-231 cells. The class given is cell-based.
The next assay concerns the target CYR61 C70 (O00622) (Homo sapiens, UniProt O00622). Kind of assay: Competitive isoTOP-ABPP, cell lysates. The class given is binding.
Assay [1] addresses T2, cysteines in MDA-MB-231 and Ramos cells (Homo sapiens, UniProt Q8NEC7).
T2 sequence (Q8NEC7 1-633): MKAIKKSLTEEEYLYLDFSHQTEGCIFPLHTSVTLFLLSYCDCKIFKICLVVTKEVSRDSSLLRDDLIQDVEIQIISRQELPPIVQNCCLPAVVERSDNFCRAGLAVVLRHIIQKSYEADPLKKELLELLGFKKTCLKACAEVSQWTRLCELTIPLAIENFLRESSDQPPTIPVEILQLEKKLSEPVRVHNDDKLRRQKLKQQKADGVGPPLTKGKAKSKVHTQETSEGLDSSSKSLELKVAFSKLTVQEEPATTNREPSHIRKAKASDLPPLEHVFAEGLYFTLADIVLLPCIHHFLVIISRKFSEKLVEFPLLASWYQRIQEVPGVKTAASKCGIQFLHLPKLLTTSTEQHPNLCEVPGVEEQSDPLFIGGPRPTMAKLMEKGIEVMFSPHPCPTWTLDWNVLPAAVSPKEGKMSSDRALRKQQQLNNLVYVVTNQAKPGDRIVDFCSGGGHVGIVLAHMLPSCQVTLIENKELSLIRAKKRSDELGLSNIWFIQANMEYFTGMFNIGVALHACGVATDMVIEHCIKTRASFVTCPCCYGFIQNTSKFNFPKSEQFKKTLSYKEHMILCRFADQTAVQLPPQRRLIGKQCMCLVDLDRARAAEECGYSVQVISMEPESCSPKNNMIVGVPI
Kind of assay: Competitive isoTOP-ABPP in situ (fragment-treated cells). The following applies: 200 μM, insitu. The class given is cell-based.

SMILES strings stand for the structures.

Chain of USP16 C205 (Q9Y5T5) (Q9Y5T5 whole entry): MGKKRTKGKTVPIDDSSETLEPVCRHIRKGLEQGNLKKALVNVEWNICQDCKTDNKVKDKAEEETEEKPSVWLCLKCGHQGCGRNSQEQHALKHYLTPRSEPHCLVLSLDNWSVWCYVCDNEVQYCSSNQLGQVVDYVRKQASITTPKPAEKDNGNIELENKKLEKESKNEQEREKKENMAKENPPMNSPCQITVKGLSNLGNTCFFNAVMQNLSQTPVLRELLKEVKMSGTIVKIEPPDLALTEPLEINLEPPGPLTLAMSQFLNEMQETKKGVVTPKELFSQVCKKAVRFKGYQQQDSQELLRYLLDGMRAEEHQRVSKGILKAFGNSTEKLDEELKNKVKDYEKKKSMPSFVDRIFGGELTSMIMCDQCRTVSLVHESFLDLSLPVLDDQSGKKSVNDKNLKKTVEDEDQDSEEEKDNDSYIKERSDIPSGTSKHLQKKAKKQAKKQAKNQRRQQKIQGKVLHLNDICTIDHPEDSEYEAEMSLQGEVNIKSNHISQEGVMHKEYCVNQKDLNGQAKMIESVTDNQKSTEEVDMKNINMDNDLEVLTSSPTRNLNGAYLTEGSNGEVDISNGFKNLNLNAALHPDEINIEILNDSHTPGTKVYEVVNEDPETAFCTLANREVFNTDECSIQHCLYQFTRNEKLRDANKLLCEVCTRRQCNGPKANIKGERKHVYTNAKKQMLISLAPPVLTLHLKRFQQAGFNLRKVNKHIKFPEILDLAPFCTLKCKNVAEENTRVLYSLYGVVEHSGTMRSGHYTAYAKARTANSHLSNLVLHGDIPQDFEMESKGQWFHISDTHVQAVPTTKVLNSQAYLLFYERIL
Chain of CYR61 C70 (O00622) (O00622 25-381): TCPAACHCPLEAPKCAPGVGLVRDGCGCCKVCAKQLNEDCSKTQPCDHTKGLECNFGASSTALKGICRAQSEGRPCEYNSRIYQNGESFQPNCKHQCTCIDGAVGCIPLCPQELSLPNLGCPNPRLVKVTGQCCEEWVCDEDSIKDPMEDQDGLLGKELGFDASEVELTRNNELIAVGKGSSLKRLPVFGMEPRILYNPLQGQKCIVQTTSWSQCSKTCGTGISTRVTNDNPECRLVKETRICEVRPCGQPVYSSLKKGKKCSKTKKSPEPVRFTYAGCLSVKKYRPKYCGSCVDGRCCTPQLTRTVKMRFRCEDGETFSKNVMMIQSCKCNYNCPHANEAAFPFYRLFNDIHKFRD
T1 sequence (O75874 whole entry): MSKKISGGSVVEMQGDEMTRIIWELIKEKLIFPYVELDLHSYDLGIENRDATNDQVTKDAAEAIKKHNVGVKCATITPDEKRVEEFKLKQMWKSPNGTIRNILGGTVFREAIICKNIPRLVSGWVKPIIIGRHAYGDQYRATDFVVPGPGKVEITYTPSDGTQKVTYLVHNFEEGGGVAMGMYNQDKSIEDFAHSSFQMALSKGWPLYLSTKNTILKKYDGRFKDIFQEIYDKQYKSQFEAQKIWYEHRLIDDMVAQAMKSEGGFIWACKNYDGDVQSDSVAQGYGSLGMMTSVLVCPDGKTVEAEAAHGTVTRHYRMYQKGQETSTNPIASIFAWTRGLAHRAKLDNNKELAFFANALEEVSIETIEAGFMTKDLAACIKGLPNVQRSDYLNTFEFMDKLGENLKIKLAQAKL
Chain of MKI67 C903 (P46013) (P46013 whole entry, the tested form may be a part): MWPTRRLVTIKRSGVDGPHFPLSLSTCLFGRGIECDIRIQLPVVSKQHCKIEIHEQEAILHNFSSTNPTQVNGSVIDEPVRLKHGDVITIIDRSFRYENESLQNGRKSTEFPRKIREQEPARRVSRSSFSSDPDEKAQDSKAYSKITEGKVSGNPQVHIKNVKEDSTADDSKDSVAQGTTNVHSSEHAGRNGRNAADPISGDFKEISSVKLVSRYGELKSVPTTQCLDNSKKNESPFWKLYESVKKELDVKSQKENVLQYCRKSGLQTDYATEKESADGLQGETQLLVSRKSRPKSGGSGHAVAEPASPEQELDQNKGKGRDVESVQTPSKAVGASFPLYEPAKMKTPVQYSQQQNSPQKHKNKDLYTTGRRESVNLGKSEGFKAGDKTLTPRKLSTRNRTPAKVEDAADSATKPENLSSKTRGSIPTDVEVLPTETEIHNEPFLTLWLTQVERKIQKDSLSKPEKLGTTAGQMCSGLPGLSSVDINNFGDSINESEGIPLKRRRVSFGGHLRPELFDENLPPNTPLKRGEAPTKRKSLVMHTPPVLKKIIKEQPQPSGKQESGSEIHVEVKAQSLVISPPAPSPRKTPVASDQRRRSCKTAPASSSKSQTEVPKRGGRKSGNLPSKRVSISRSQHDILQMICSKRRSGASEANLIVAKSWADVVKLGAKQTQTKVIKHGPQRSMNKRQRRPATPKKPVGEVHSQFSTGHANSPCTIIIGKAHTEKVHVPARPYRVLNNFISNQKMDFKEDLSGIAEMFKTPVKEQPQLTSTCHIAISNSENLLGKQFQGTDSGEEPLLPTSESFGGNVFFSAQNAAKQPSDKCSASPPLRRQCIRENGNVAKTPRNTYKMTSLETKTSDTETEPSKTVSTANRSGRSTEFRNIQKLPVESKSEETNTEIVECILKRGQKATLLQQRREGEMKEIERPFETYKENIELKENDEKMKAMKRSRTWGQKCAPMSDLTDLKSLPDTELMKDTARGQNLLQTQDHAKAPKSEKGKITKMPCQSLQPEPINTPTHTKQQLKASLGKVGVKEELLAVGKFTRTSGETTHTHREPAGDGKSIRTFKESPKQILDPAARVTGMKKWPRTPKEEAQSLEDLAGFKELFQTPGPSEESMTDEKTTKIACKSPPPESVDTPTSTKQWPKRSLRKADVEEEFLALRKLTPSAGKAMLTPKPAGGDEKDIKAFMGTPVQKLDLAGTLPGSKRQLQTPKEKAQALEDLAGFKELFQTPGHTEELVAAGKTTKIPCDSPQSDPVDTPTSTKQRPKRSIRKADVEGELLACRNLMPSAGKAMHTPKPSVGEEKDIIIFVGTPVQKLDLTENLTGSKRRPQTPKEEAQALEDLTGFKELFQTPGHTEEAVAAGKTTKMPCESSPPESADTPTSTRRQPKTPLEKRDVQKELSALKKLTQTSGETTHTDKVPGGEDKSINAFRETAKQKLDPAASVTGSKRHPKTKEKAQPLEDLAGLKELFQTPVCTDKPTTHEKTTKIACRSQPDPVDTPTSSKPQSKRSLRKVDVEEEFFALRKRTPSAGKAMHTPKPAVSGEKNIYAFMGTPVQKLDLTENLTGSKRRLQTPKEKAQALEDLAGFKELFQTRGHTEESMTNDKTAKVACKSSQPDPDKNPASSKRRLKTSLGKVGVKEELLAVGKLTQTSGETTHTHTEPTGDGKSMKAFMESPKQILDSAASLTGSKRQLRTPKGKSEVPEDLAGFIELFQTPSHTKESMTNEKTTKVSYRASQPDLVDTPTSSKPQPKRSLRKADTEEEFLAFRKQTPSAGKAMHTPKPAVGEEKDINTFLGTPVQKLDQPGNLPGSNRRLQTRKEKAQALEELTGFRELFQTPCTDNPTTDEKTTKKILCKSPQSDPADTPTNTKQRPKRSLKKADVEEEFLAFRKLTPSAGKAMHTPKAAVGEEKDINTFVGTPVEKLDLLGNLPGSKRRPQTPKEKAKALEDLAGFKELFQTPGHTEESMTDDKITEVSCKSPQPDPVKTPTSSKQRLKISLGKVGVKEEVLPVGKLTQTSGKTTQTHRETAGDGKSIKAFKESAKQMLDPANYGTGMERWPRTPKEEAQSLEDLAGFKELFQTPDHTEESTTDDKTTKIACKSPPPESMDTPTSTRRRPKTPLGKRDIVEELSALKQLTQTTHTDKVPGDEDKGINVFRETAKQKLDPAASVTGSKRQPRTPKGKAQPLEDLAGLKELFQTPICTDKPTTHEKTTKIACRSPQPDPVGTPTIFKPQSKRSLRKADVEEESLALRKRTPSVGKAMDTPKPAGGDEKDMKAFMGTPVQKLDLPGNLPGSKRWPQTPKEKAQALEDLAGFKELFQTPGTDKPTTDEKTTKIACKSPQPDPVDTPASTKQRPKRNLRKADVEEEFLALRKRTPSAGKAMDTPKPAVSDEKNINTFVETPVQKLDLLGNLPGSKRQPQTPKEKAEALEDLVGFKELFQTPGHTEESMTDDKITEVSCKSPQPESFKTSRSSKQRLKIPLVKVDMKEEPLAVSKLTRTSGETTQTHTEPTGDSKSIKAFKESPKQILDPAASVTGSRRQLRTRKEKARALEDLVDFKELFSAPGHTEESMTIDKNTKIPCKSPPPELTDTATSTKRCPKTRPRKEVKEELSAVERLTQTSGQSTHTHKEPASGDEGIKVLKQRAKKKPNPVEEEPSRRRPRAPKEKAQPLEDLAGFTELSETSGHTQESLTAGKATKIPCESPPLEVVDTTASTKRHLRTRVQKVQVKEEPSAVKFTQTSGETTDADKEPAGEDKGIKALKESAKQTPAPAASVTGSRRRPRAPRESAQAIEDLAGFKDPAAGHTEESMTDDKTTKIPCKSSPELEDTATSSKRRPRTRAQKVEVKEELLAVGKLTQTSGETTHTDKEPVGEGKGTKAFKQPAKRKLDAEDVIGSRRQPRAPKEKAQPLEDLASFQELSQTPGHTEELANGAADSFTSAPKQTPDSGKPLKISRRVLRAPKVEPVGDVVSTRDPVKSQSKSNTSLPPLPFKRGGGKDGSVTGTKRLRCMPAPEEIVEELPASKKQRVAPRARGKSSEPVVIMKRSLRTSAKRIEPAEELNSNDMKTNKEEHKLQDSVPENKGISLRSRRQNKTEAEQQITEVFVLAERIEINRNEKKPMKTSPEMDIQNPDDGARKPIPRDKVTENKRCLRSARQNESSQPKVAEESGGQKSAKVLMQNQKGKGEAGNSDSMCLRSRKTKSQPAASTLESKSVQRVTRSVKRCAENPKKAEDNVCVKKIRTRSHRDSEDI

Consider `COc1ccc2c(c1)CCCN2C(=O)CCl` [compound 2], for which the IC50 on WT-IDH1 (C269) was over 50 µM. For the same molecule, the “isoTOP-ABPP reactivity profile (ratio) 2_200 μM_in-situ_231” value on MKI67 C903 (P46013) came out at 20.0; at USP16 C205 (Q9Y5T5) (fragment 2 at 200 μM), 7.9.
As to `O=C(CCl)Nc1cc(C(F)(F)F)cc(C(F)(F)F)c1` [compound 3], the “R value (DMSO/fragment)” value on CYR61 C70 (O00622) (500 μM, in vitro, MDA-MB-231) is 20.0.
As for `COc1ccc(C2CC(c3cccs3)=NN2C(=O)CCl)cc1` (stereo not shown) [compound 4], the “isoTOP-ABPP reactivity profile (ratio) 4_100 μM_in-situ_231” value at USP16 C205 (Q9Y5T5) (fragment 4 at 100 μM) is given as 20.0.
For `O=C(CCl)NCCc1c[nH]c2ccccc12` [compound 13], the “isoTOP-ABPP ratio, cysteine Q8NEC7_C140” value in assay [1] (231) amounted to 1.8; in assay [1] (ramos) it was 20.0.
Consider `O=C(CCl)N1CCC(C(O)(c2ccccc2)c2ccccc2)CC1` [compound 20], for which it took 2.9 µM to reach half-maximal inhibition on WT-IDH1 (C269) (IC50).
In the case of `CC(C)CCOCCNC(=O)CCl` [compound 27], on CYR61 C70 (O00622) (500 μm in-vitro ramos_231), the “isoTOP-ABPP ratio (reactivity profile), O00622_C70” value is 1.1.
Turning to `CC1CCc2ccccc2N1C(=O)CCl` (stereo not shown) [compound 45], the “isoTOP-ABPP ratio Q8NEC7_C140” value in assay [1] (231) was 20.0.
